From ChEMBL document CHEMBL1201862, “PubChem BioAssay data set” (2004) come the findings set out here.

Among the test systems are 786-0; COLO 205; HCT-116; HCT-15; HT-29; MDA-MB-435; SF-268; SF-295; SK-MEL-28; SK-MEL-2; SR; T47D; TK-10; UACC-62; A498; OVCAR-4; RXF 393; SK-OV-3.
Holding throughout (assay): NCI-60 cell line screen, 48 h

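All cell lines were grown in 96-well plates and treated with compound for 48 hours. GI50 is the concentration that inhibits growth by half.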 Activity calls are given as the source filed them. Rule as the data show it: active = GI50 up to about 1.1 µM and inactive = higher. Where only a bound is given, the exact number is not on record here.

Consider `CC1C(c2ccc3c(c2)OCO3)c2cc3c(cc2OC1N1CCCCC1)OCO3` (configuration not stated), for which the GI50 was 61.5 µM (inactive) with 786-0; 36.5 µM (inactive) in the experiment on COLO 205; 42.6 µM (inactive) in the experiment with HCT-116; 50.4 µM in the experiment with HCT-15; 57.5 µM (inactive) in the experiment on HT-29; 25.2 µM (inactive) in the experiment on MDA-MB-435. Besides, the GI50 with SF-268 is > 100 µM (inactive); with SF-295, 30.6 µM (inactive); with SK-MEL-28, 54.8 µM (inactive); with SK-MEL-2, 33.6 µM (inactive); with SR, 37.8 µM (inactive); with T47D it was 30.7 µM (inactive). Also, the GI50 in the experiment on TK-10 was > 100 µM (inactive); with UACC-62, 88.9 µM (inactive).
Turning to `CC1(C)OC(COCCOCCCCCO)C(COCCOCCCCCO)O1` (configuration not stated), the GI50 was > 100 µM (inactive) in the experiment on 786-0; > 100 µM (inactive) in the experiment on A498; > 100 µM (inactive) with COLO 205; > 100 µM (inactive) with HCT-116; greater than 100 µM in the experiment on HCT-15; > 100 µM (inactive) with HT-29. The GI50 in the experiment on OVCAR-4, in the experiment with RXF 393, with SF-268, in the experiment on SF-295, in the experiment with SK-MEL-28 and in the experiment on SK-MEL-2 was > 100 µM (inactive) throughout. The GI50 with SK-OV-3 is > 100 µM (inactive); in the experiment with SR, > 100 µM (inactive); in the experiment with TK-10 it was > 100 µM (inactive); in the experiment with UACC-62 it was 82.6 µM (inactive).
Consider `Cc1ccccc1NC(=O)Cc1nc2ccccc2s1`, for which the GI50 was 17.7 µM (inactive) in the experiment with 786-0; 19.2 µM (inactive) with A498; 30.7 µM (inactive) in the experiment on COLO 205; 16.5 µM (inactive) in the experiment with HCT-116; 19.6 µM (inactive) in the experiment on HT-29; 17.3 µM (inactive) with OVCAR-4. Also, the GI50 is 18.9 µM (inactive) in the experiment with RXF 393; 17 µM (inactive) in the experiment with SF-268; 15.8 µM (inactive) in the experiment on SF-295; 17.7 µM (inactive) with SK-MEL-28; 16 µM (inactive) with SK-MEL-2; 24.4 µM (inactive) with SK-OV-3. Besides, the GI50 in the experiment with SR was 13.1 µM (inactive); in the experiment with TK-10, 23.8 µM (inactive); with UACC-62, 19.4 µM (inactive).
With `COc1ccc2c(c1)[n+]([O-])c(-c1ccc(Br)cc1)c(N)[n+]2[O-]`, the GI50 in the experiment with 786-0 was 78 µM (inactive); with A498, > 100 µM (inactive); in the experiment with COLO 205, 18.9 µM (inactive); with HCT-116, 30.6 µM (inactive); in the experiment with HT-29, 44.4 µM (inactive); in the experiment on OVCAR-4, 35.6 µM (inactive). In addition, the GI50 in the experiment with RXF 393 was 34.6 µM (inactive); in the experiment with SF-268, 39.4 µM (inactive); in the experiment on SF-295, 96.2 µM (inactive); with SK-MEL-28, 23.2 µM (inactive); in the experiment with SK-MEL-2 it was 32.4 µM (inactive); with SK-OV-3 it was 92.7 µM (inactive). Moreover, the GI50 in the experiment on SR was 36.6 µM (inactive).
Consider `COC(=O)/C(=N/NC(=O)C[N+](C)(C)C)C(C(=O)OC)C(=O)C(=O)Nc1ccc(F)cc1` (configuration not stated), for which the GI50 was > 100 µM (inactive) in the experiment with 786-0; 63.7 µM (inactive) in the experiment with A498; > 100 µM (inactive) with COLO 205; > 100 µM (inactive) in the experiment with HCT-116; greater than 100 µM in the experiment with HCT-15; > 100 µM (inactive) in the experiment with HT-29. In addition, the GI50 in the experiment on OVCAR-4, with RXF 393, in the experiment with SF-268, in the experiment on SF-295, with SK-MEL-28 and in the experiment with SK-MEL-2 was > 100 µM (inactive) throughout. Moreover, the GI50 in the experiment on SK-OV-3, in the experiment on SR, in the experiment on TK-10 and with UACC-62 was > 100 µM (inactive) throughout.
As to `CCOC(=O)C(=O)Nc1c(C)cccc1C(C)C`, the GI50 is > 100 µM (inactive) in the experiment with 786-0; > 100 µM (inactive) in the experiment with A498; > 100 µM (inactive) in the experiment with COLO 205; > 100 µM (inactive) in the experiment on HCT-116; greater than 100 µM with HCT-15; > 100 µM (inactive) with HT-29. Also, the GI50 with OVCAR-4, in the experiment on SF-268, with SF-295, in the experiment on SK-MEL-28, in the experiment with SK-MEL-2 and in the experiment on SK-OV-3 was > 100 µM (inactive) in each case. Also, the GI50 in the experiment on SR, in the experiment with TK-10 and in the experiment on UACC-62 was > 100 µM (inactive) each time.
On to `Cc1ccc(S(=O)(=O)SCc2ccccc2)cc1`, for which the GI50 is 17.3 µM (inactive) in the experiment on 786-0; 52.8 µM (inactive) in the experiment with A498; 14.3 µM (inactive) with COLO 205; 7.6 µM (inactive) with HCT-116; 14.1 µM in the experiment on HCT-15; 22.9 µM (inactive) in the experiment with HT-29. Moreover, the GI50 was 15.5 µM (inactive) in the experiment on OVCAR-4; 28.4 µM (inactive) in the experiment on RXF 393; 34 µM (inactive) with SF-268; 30.3 µM (inactive) in the experiment on SF-295; 50 µM (inactive) with SK-MEL-28; 27 µM (inactive) in the experiment on SK-MEL-2. The GI50 was 52.2 µM (inactive) in the experiment with SK-OV-3, 28 µM (inactive) in the experiment with SR, > 55.7 µM (inactive) with TK-10 and 29.4 µM (inactive) with UACC-62.
Turning to `COC(=O)/C(=N\NC(N)=O)C(C(=O)C=C(C)C)C(=O)C(=O)Nc1ccc(Cl)c(Cl)c1` (configuration not stated), the GI50 was > 100 µM (inactive) with 786-0; > 100 µM (inactive) in the experiment on A498; > 100 µM (inactive) in the experiment on COLO 205; > 100 µM (inactive) in the experiment with HCT-116; greater than 100 µM in the experiment on HCT-15; > 100 µM (inactive) in the experiment on HT-29. For the same compound, the GI50 with OVCAR-4, in the experiment on RXF 393, in the experiment on SF-268, in the experiment on SF-295, in the experiment with SK-MEL-28 and in the experiment on SK-MEL-2 was > 100 µM (inactive) in each case. Besides, the GI50 in the experiment with SK-OV-3, in the experiment with SR, in the experiment on TK-10 and with UACC-62 was > 100 µM (inactive) throughout.
Regarding `CC(C)N1C(C)[C@@H](c2ccccc2)O[P@]1(=O)CC1=CCCCC1` (some centres not stated), the GI50 in the experiment with 786-0 is > 100 µM (inactive); in the experiment on A498, > 100 µM (inactive); in the experiment with COLO 205, 98.4 µM (inactive); with HCT-116, > 100 µM (inactive); with HCT-15, greater than 100 µM; with HT-29, > 100 µM (inactive). The GI50 in the experiment with RXF 393 is > 100 µM (inactive); with SF-268 it was > 100 µM (inactive); in the experiment on SF-295 it was 40.9 µM (inactive); with SK-MEL-28, > 100 µM (inactive); in the experiment with SK-MEL-2, > 100 µM (inactive); in the experiment on SK-OV-3, > 100 µM (inactive). For the same compound, the GI50 is 44.5 µM (inactive) with SR, > 100 µM (inactive) in the experiment on TK-10 and 51.5 µM (inactive) in the experiment on UACC-62.
On to `C[C@]12CCC[C@H](OC=O)C1(O)C[C@H](C(=O)O)CC2` (some centres not stated), for which the GI50 in the experiment on 786-0 is > 100 µM (inactive); in the experiment on A498, > 100 µM (inactive); in the experiment on COLO 205 it was > 100 µM (inactive); in the experiment with HCT-116 it was > 100 µM (inactive); in the experiment with HCT-15 it was greater than 100 µM; in the experiment with HT-29, > 100 µM (inactive). Moreover, the GI50 in the experiment with OVCAR-4, in the experiment with RXF 393, with SF-268, in the experiment with SF-295, with SK-MEL-28 and in the experiment on SK-MEL-2 was > 100 µM (inactive) in each case. Further, the GI50 is > 100 µM (inactive) with SK-OV-3, > 100 µM (inactive) with SR, > 100 µM (inactive) with TK-10 and 16.5 µM (inactive) with UACC-62.
